Measured values as given in patent US20070155730A1, “Benzodiazepine And Benzopiperazine Analog Inhibitors Of Histone Deacetylase” (METHYLGENE, INC., priority 2005, published 2007).

Molecular target: histone deacetylase (HDAC)
Experiment: Inhibition of Histone Deacetylase Enzymatic Activity
Assay type: biochemical
Details: substrate Boc-Lys(Ac)-AMC, Fluor-de-Lys developer, 37° C., 20 min; against one or more of HDAC-1 to HDAC-11, SirT1 to SirT7 (isoform not given); read-out: HDAC Inhibitory Activity (IC50)
Protocol: The following protocol is used to assay the compounds of the invention. In the assay, the buffer used is 25 mM HEPES, pH 8.0, 137 mM NaCl, 2.7 mM KCl, 1 mM MgCl2 and the substrate is Boc-Lys(Ac)-AMC in a 50 mM stock solution in DMSO. The enzyme stock solution is 4.08 μg/mL in buffer.
The compounds are pre-incubated (2 μl in DMSO diluted to 13 μl in buffer for transfer to assay plate) with enzyme (20 μl of 4.08 μg/mL) for 10 min at room temperature (35 μl pre-incubation volume). The mixture is pre-incubated for 5 min at room temperature. The reaction is started by bringing the temperature to 37° C. and adding 16 μl substrate. Total reaction volume is 50 μl. […] A plate is incubated in the dark for 10 min at room temperature before reading (λEX=360 nm, λEm=470 nm, Cutoff filter at 435 nm).
In the table, “A” indicates inhibitory activity at a concentration of <0.05 μM; “B” indicates inhibitory activity at a concentration >0.05 μM but <0.5 μM, “C” indicates inhibitory activity at >0.5 μM but <2 μM and “D” indicates inhibitory activity at a concentration of >2 μM but <10 μM.

Row | SMILES | IC50 [nM]
1 | O=C(NO)c1ccc(CN2c3ccccc3NC(=O)[C@@H]2Cc2ccccc2)cc1 [Compound 54b4, (S)-4-((2-benzyl-3-oxo-3,4-dihydroquinoxalin-1(2H)-yl)methyl)-N-hydroxybenzamide] | < 50
2 | O=C(NO)c1ccc(CN2c3ccccc3NC(=O)[C@H]2Cc2ccccc2)cc1 [Compound 54b5, (R)-4-((2-benzyl-3-oxo-3,4-dihydroquinoxalin-1(2H)-yl)methyl)-N-hydroxybenzamide] | < 50
3 | O=C(NO)c1ccc(CN2c3ccccc3NC(=O)[C@H]2CCc2ccccc2)cc1 [Compound 54b7, (R)—N-hydroxy-4-((3-oxo-2-phenethyl-3,4-dihydroquinoxalin-1(2H)-yl)methyl)benzamide] | < 50
4 | O=C(NO)c1ccc(CN2c3ccccc3NC(=O)[C@H]2CC2CCCCC2)cc1 [Compound 54b8, (R)-4-((2-(cyclohexylmethyl)-3-oxo-3,4-dihydroquinoxalin-1(2H)-yl)methyl)-N-hydroxybenzamide] | 50 to 500
5 | CC(C)(C)OC(=O)NCCCC[C@@H]1C(=O)Nc2ccccc2N1Cc1ccc(C(=O)NO)cc1 [Compound 54b9, (R)-tert-butyl 4-(1-(4-(hydroxycarbamoyl)benzyl)-3-oxo-1,2,3,4-tetrahydroquinoxalin-2-yl)butylcarbamate] | < 50
6 | O=C(NO)c1ccc(CN2c3ccccc3NC(=O)[C@H]2Cc2ccc3ccccc3c2)cc1 [Compound 54b10, (R)—N-hydroxy-4-((2-(naphthalen-2-ylmethyl)-3-oxo-3,4-dihydroquinoxalin-1(2H)-yl)methyl)benzamide] | < 50
7 | CC(C)(C)Oc1ccc(C[C@@H]2C(=O)Nc3ccccc3N2Cc2ccc(C(=O)NO)cc2)cc1 [Compound 54b11, (R)-4-((2-(4-tert-butoxybenzyl)-3-oxo-3,4-dihydroquinoxalin-1(2H)-yl)methyl)-N-hydroxybenzamide] | < 50
8 | CC(C)(C)OC(=O)CC[C@@H]1C(=O)Nc2ccccc2N1Cc1ccc(C(=O)NO)cc1 [Compound 54b12, (R)-tert-butyl 3-(1-(4-(hydroxycarbamoyl)benzyl)-3-oxo-1,2,3,4-tetrahydroquinoxalin-2-yl)propanoate] | < 50
9 | O=C(NO)c1ccc(CN2c3ccccc3NC(=O)[C@H]2Cc2csc3ccccc23)cc1 [Compound 54b13, (R)-4-((2-(benzo[b]thiophen-3-ylmethyl)-3-oxo-3,4-dihydroquinoxalin-1(2H)-yl)methyl)-N-hydroxybenzamide] | < 50
10 | O=C(NO)c1ccc(CN2c3ccccc3NC(=O)[C@@H]2Cc2csc3ccccc23)cc1 [Compound 54b14, (S)-4-((2-(benzo[b]thiophen-3-ylmethyl)-3-oxo-3,4-dihydroquinoxalin-1(2H)-yl)methyl)-N-hydroxybenzamide] | 50 to 500
11 | O=C(NO)c1ccc(CN2c3ccccc3NC(=O)[C@H]2Cc2ccc(F)cc2)cc1 [Compound 54b15, (R)-4-((2-(4-fluorobenzyl)-3-oxo-3,4-dihydroquinoxalin-1(2H)-yl)methyl)-N-hydroxybenzamide] | < 50
12 | O=C(NO)c1ccc(CN2c3ccccc3NC(=O)[C@H]2Cc2ccc(C(F)(F)F)cc2)cc1 [Compound 54b17, (R)-4-((2-(4-trifluoromethylbenzyl)-3-oxo-3,4-dihydroquinoxalin-1(2H)-yl)methyl)-N-hydroxybenzamide] | 50 to 500
13 | O=C(NO)c1ccc(CN2c3ccccc3NC(=O)[C@H]2Cc2cccc(C(F)(F)F)c2)cc1 [Compound 54b19, (R)—N-hydroxy-4-((2-(3-(trifluoromethyl)benzyl)-3-oxo-3,4-dihydroquinoxalin-1(2H)-yl)methyl)benzamide] | 50 to 500
14 | O=C(NO)c1ccc(CN2c3ccccc3NC(=O)[C@H]2Cc2ccoc2)cc1 [Compound 54b20, (R)-4-((2-(furan-3-ylmethyl)-3-oxo-3,4-dihydroquinoxalin-1(2H)-yl)methyl)-N-hydroxybenzamide] | < 50
15 | O=C(NO)c1ccc(CN2c3ccccc3NC(=O)[C@H]2Cc2cccnc2)cc1 [Compound 54b21, (R)—N-hydroxy-4-((3-oxo-2-(pyridin-3-ylmethyl)-3,4-dihydroquinoxalin-1(2H)-yl)methyl)benzamide] | < 50
16 | Nc1ccccc1NC(=O)c1ccc(CN2c3ccccc3NC(=O)[C@@H]2Cc2cccs2)cc1 [Compound 54c, (S)—N-(2-aminophenyl)-4-((3-oxo-2-(thiophen-2-ylmethyl)-3,4-dihydroquinoxalin-1(2H)-yl)methyl)benzamide] | 50 to 500
17 | O=C(NO)c1ccc(CN2c3ccccc3NC(=O)[C@H]2Cc2cccs2)cc1 [Compound 56a, 4-(((R)-2,3-Dihydro-2-oxo-3-((thiophen-2-yl)methyl)quinoxalin-4(1H)-yl)methyl)-N-hydroxybenzamide] | 500 to 2000
18 | Nc1ccc(-c2cccs2)cc1NC(=O)c1ccc(-c2ccc3c(c2)NC(=O)[C@H](Cc2c[nH]c4ccccc24)N3)cc1 [Compound 62, 4-((S)-2-((1H-indol-3-yl)methyl)-1,2,3,4-tetrahydro-3-oxoquinoxalin-6-yl)-N-(2-amino-5-(thiophen-2-yl)phenyl)benzamide] | 50 to 500

Further lines, results first:

Row | IC50 [nM] | SMILES
19 | 500 to 2000 | O=C(/C=C/c1ccc2c(c1)NC(=O)[C@H](Cc1c[nH]c3ccccc13)N2)NO [Compound 66c, (E)-3-((S)-2-((1H-indol-3-yl)methyl)-1,2,3,4-tetrahydro-3-oxoquinoxalin-6-yl)-N-hydroxyacrylamide]
20 | 50 to 500 | O=C(/C=C/c1ccc2c(c1)NC(=O)[C@@H](Cc1c[nH]c3ccccc13)N2)NO [Compound 66f, (E)-3-((R)-2-((1H-indol-3-yl)methyl)-1,2,3,4-tetrahydro-3-oxoquinoxalin-6-yl)-N-hydroxyacrylamide]
21 | 500 to 2000 | CC(C)C[C@@H]1NC(=O)c2ccccc2N(CCCCCC(=O)NO)C1=O [Compound 68b1, 6-((S)-2,3,4,5-tetrahydro-3-isobutyl-2,5-dioxobenzo[e][1,4]diazepin-1-yl)-N-hydroxyhexanamide]
22 | 50 to 500 | CC(C)(C)C[C@@H]1NC(=O)c2ccccc2N(CCCCCC(=O)NO)C1=O [Compound 68b3, 6-((S)-2,3,4,5-tetrahydro-3-neopentyl-2,5-dioxobenzo[e][1,4]diazepin-1-yl)-N-hydroxyhexanamide]
23 | 50 to 500 | O=C(CCCCCN1C(=O)[C@@H](c2ccccc2)NC(=O)c2ccccc21)NO [Compound 68b4, 6-((R)-2,3,4,5-tetrahydro-2,5-dioxo-3-phenylbenzo[e][1,4]diazepin-1-yl)-N-hydroxyhexanamide]
24 | 2000 to 10000 | O=C(CCCCCN1C(=O)[C@H](Cc2c[nH]c3ccccc23)NC(=O)c2ccccc21)NO [Compound 68b7, 6-((S)-3-((1H-Indol-3-yl)methyl)-2,3,4,5-tetrahydro-2,5-dioxobenzo[e][1,4]diazepin-1-yl)-N hydroxyhexanamide]
25 | 50 to 500 | O=C(CCCCCN1C(=O)[C@@H](Cc2c[nH]c3ccccc23)NC(=O)c2ccccc21)NO [Compound 68b8, 6-((R)-3-((1H-Hz, indol-3-yl)methyl)-2,3,4,5-tetrahydro-2,5-dioxobenzo[e][1,4]diazepin-1-yl)-N-hydroxyhexanamide]
26 | 500 to 2000 | O=C(CCCCCN1C(=O)[C@@H](Cc2ccncc2)NC(=O)c2ccccc21)NO [Compound 68b9, 6-((R)-2,3,4,5-Tetrahydro-2,5-dioxo-3-((pyridin-4-yl)methyl)benzo [e][1,4]diazepin-1-yl)-N-hydroxyhexanamide]
27 | 50 to 500 | O=C(CCCCCN1C(=O)[C@H](c2ccccc2)NC(=O)c2ccccc21)NO [Compound 68b11, 6-((S)-2,3,4,5-tetrahydro-2,5-dioxo-3-phenylbenzo[e][1,4]diazepin-1-yl)-N-hydro-xyhexanamide]
28 | 50 to 500 | CC(C)C[C@H]1NC(=O)c2ccccc2N(CCCCCC(=O)NO)C1=O [Compound 68b12, 6-((R)-2,3,4,5-tetrahydro-3-isobutyl-2,5-dioxobenzo[e][1,4]diazepin-1-yl)-N-amide]
29 | 2000 to 10000 | O=C(CCCCCN1C(=O)C2(CCCC2)NC(=O)c2ccccc21)NO [Compound 68b16, 6-(3,3-Spirocyclopentyl-2,5-dioxo-2,3,4,5, tetrahydrobenzo [e][1,4]diazepin-1-yl)-N-hydroxyhexanamide]
30 | 50 to 500 | CC(C)(C)C[C@H]1NC(=O)c2ccccc2N(CCCCCC(=O)NO)C1=O [Compound 68b18, 6-((R)-2,3,4,5-Tetrahydro-3-neopentyl-2,5-dioxobenzo[e][1,4]diazepin-1-yl)-N-hydroxyhexanamide]
31 | 500 to 2000 | O=C(CCCCCN1C(=O)[C@H](C2CCCCC2)NC(=O)c2ccccc21)NO [Compound 68b19, 6-((S)-3-Cyclohexyl-2,3,4,5-tetrahydro-2,5-dioxobenzo[e][1,4]diazepin-1-yl)-N-hydroxyhexanamide]
32 | 500 to 2000 | O=C(CCCCCN1C(=O)[C@H](CC2CCCCC2)NC(=O)c2ccccc21)NO [Compound 68b20, 6-((S)-3-(Cyclohexylmethyl)-2,3,4,5-tetrahydro-2,5-dioxobenzo[e][1,4]diazepin-1-yl)-N-hydroxyhexanamide]
33 | 50 to 500 | O=C(CCCCCN1C(=O)[C@@H](CC2CCCCC2)NC(=O)c2ccccc21)NO [Compound 68b21, 6-((R)-3-(cyclohexylmethyl)-2,3,4,5-tetrahydro-2,5-dioxobenzo[e][1,4]diazepin-1-yl)-N-hydroxyhexanamide]
